Reference: paper PMC11440583 (2024)

Key:
[1] = tested on: Tel22 (Tel22-Na+ antiparallel; Tel22-K+ hybrid) (DNA, G4) AGGGTTAGGGTTAGGGTTAGGG; test: 1H NMR titration; conditions: up to 2.0 equiv compound
[2] = tested on: c-MYC Pu22 (DNA, G4) TGAGGGTGGGTAGGGTGGGTAA; test: 1H NMR titration; conditions: K+; 0-1.5 equiv compound
[3] = tested on: Tel22 (Tel22-Na+ antiparallel; Tel22-K+ hybrid) (DNA, G4) AGGGTTAGGGTTAGGGTTAGGG; test: CD (or UV) thermal melting; conditions: 10 mM Tris pH 7.2, 8 μM compound, 2 μM DNA
[4] = tested on: Bom17 (DNA, G4) GGTTAGGTTAGGTTAGG; test: CD (or UV) thermal melting; conditions: 15 mM KCl; 10 mM Tris pH 7.2; 8 μM compound, 2 μM DNA
[5] = tested on: TBA (DNA, G4) GGTTGGTGTGGTTGG; test: CD (or UV) thermal melting; conditions: 5 mM KCl; 10 mM Tris pH 7.2; 8 μM compound, 2 μM DNA
[6] = tested on: VEGF (DNA, G4) GGGAGGGTTGGGGTGGG; test: CD (or UV) thermal melting; conditions: 5 mM KCl; 10 mM Tris pH 7.2; 8 μM compound, 2 μM DNA
[7] = tested on: c-MYC Pu22 (DNA, G4) TGAGGGTGGGTAGGGTGGGTAA; test: CD (or UV) thermal melting; conditions: 5 mM KCl; 10 mM Tris pH 7.2; 8 μM compound, 2 μM DNA
[8] = tested on: c-MYC Pu24T (c-MYC Pu24-T; c-MYC Pu24) (DNA, G4) TGAGGGTGGTGAGGGTGGGGAAGG; test: CD (or UV) thermal melting; conditions: 5 mM KCl; 10 mM Tris pH 7.2; 8 μM compound, 2 μM DNA
[9] = tested on: dsDNA (DNA, duplex) CAATCGGATCGAATTCGATCCGATTG; test: CD (or UV) thermal melting; conditions: 5 mM KCl; 10 mM Tris pH 7.2; 8 μM compound, 2 μM DNA
[10] = tested on: F-Tel22-Na+-T (DNA, G4) AGGGTTAGGGTTAGGGTTAGGG; test: FRET melting with dsDNA competitor; conditions: 40 mM NaCl; 10 mM sodium cacodylate pH 7.2; 2 μM compound, 0.2 μM G4; 0-20 μM dsDNA
[11] = tested on: Cy5-HIF-1α (DNA, G4) GCGCGGGGAGGGGAGAGGGGGCGGGAGCGCG; test: microscale thermophoresis (ligand-induced fluorescence quenching); conditions: 100 mM KCl; 50 mM Tris pH 7.2, 0.05% Tween 20; 50 nM G4

- binding [1]: yes
- binding [2]: yes
- ΔTm ([3]; 5 mM KCl): 9.9 °C
- ΔTm ([3]; 15 mM NaCl): 5.8 °C
- ΔTm [4]: 8.8 °C
- ΔTm [5]: 6.3 °C
- ΔTm [6]: 14.7 °C
- ΔTm [7]: 19.2 °C
- ΔTm [8]: 4.2 °C
- ΔTm [9]: 1.0 °C
- binding [10]: yes
- association constant [11]: 2.8 × 10^5 M^–1
Compound: NCCNCCNC(=O)c1cc(F)c(/N=N/c2c(F)cc(-c3ccncc3)cc2F)c(F)c1
